Consider 105 compounds from PubChem BioAssay AID1996.

In general, solubility (kinetic) refers to solubility judged after dilution from a stock solution rather than from solid.

Values after ≈ are worked out from the molar mass of the structure shown. Bounds are passed on as bounds.

The conditions of this data set: buffer; pH 7.4; 200.0 µM.
Regarding `NC(=O)c1nn(CC(=O)Nc2ccc3c(c2)OCO3)cc1[N+](=O)[O-]`, the solubility (kinetic) is > 50 µg/mL.
For the compound `CC(C)=CC(=O)OCC(=O)Nc1cc(C)ccc1C`, the solubility (kinetic) came out at 15 µg/mL (≈ 57.4 µM).
The result for `Cc1ccc(F)cc1NC(=O)N1CCCN(c2ccc(C(F)(F)F)cn2)CC1` reads 6.6 µg/mL (≈ 16.7 µM); that for `CCOc1ccc(C(=O)n2cc(C(=O)OC)c3ccccc32)cc1`, < 0.7 µg/mL; that for `Cc1cccc(CC2CC(=O)N(CCc3ccc4c(c3)OCO4)C2=O)c1` (stereo not given), 11.5 µg/mL (≈ 32.7 µM).
The result for `Nc1nc2c(s1)CCCCCCCCCC2` reads 6.6 µg/mL (≈ 27.7 µM); that for `COc1ccc(CCn2cnc3c([nH]c4ccccc43)c2=O)cc1`, < 0.2 µg/mL; that for `Cc1ccc(-c2nc(-c3ccncc3)no2)cc1Cl`, < 0.2 µg/mL.
`Cc1ccc(S(=O)(=O)NC(=O)Nc2c(C)cccc2C)cc1` came in with a solubility (kinetic) of 33.6 µg/mL (≈ 106 µM).
The result for `O=S(=O)(Nc1ccc(F)cc1)c1cccc2nsnc12` reads > 46.4 µg/mL; that for `COc1cc(CC(=O)Nc2nc(C)cs2)cc(OC)c1OC`, 42.9 µg/mL (≈ 133 µM); that for `O=C(Nc1cc(Cl)ccc1N1CCOCC1)c1ccco1`, 3.5 µg/mL (≈ 11.4 µM).
The result for `Cc1ccc(NC(=O)CSc2nc(N)cc(=O)[nH]2)cc1S(=O)(=O)N1CCCCCC1` reads 10.6 µg/mL (≈ 23.5 µM); that for `Nc1ccc(SC(F)(F)F)cc1`, 6 µg/mL (≈ 31.1 µM); that for `COc1ccc(C2OCC3(CO2)SC(=O)NC3=O)cc1OC` (stereo not given), 44.8 µg/mL (≈ 138 µM).
The compound `N=C(N)N1CCN(Cc2ccccc2)CC1.O=S(=O)(O)O` showed a kinetic solubility of 6.7 µg/mL.
The result for `Cn1c(/C(C#N)=C/c2ccc(O)cc2)nc2ccccc21` reads 5.5 µg/mL (≈ 20 µM); that for `Nc1sc2c(c1C(=O)NC1CC1)CCCC2`, 31 µg/mL (≈ 131 µM).
The result for `CCc1ccccc1NC(=S)NCCSc1ccc(Cl)cc1` reads 1.8 µg/mL (≈ 5.13 µM); that for `Cc1ccc(N(CN2C(=O)C3C4CCC(C4)C3C2=O)C(=O)c2ccco2)cc1` (stereo not given), 53.9 µg/mL (≈ 142 µM); that for `CCc1cc2cc(C)ccc2nc1SCC(=O)NC1CCCC1`, < 0.4 µg/mL.
The result for `COc1ccccc1NC(=O)CC(=O)c1cccc([N+](=O)[O-])c1` reads 2.9 µg/mL (≈ 9.23 µM).
In the case of `CC(=O)O.Fc1ccc(NC(=S)Nc2cccnc2)cc1`, the kinetic solubility was > 46.1 µg/mL.
The result for `Cc1csc(SCC(=O)Nc2ccc(F)cc2Cl)n1` reads > 47.5 µg/mL.
The result for `CCC(CO)NCc1sccc1C` (stereo not given) reads 26.6 µg/mL (≈ 133 µM); that for `O=S(=O)(Nc1ccc(Cl)cn1)c1ccc(F)cc1`, > 43 µg/mL; that for `O=C(O)CC/C(=N/NC(=O)CNC(=O)Cc1ccccc1)c1ccccc1`, > 55.1 µg/mL.
The result for `CC(C)OC(=O)CSc1nc2c(cc1C#N)CCCCC2` reads < 0.3 µg/mL; that for `O=C(NC(=S)Nc1cccnc1)c1cccc(Br)c1`, 8.1 µg/mL (≈ 24.1 µM); that for `COc1ccc(NC(=O)CCC(=O)N2CCCC2)c([N+](=O)[O-])c1`, > 48.2 µg/mL.
`Cc1ccc(C)c(OCC(=O)Nc2ccccc2N2CCCC2)c1`: the solubility (kinetic) is 1.3 µg/mL (≈ 4.01 µM).
The result for `Cn1c(CC(=O)NNC(=O)c2ccccc2F)nc2ccccc21` reads > 48.9 µg/mL; that for `CCOc1ccc(C(=O)NCCN2CCCCC2)c(OCC)c1`, > 48.1 µg/mL.
The result for `Cc1c(/C=N/O)c2ccccn2c1C=O` reads > 30.3 µg/mL; that for `N#Cc1nccnc1N1CCN(C(=O)Nc2ccccc2)CC1`, > 46.3 µg/mL; that for `Cc1ccc2[nH]c(CNC(=O)C3CCCCC3)cc2c1`, 19.6 µg/mL (≈ 72.5 µM).
The result for `CC(CNC(=O)c1ccco1)NC(=O)c1ccco1` (stereo not given) reads 38.8 µg/mL (≈ 148 µM).
With `CCOc1ccccc1NC(=O)NCCN1CCCCC1`, the solubility (kinetic) is > 43.7 µg/mL.
`COc1cccc(CN(C)Cc2nc(C3CC3)no2)c1`: the solubility (kinetic) is > 41 µg/mL.
The result for `Cc1ccc(S(=O)(=O)N2CCN(C(=O)COC(=O)c3cncc(Br)c3)CC2)c(C)c1` reads 5.3 µg/mL (≈ 10.7 µM).
The result for `O=C(COC(=O)c1ccc(F)c(S(=O)(=O)N2CCOCC2)c1)NCc1ccc2c(c1)OCO2` reads 53.8 µg/mL (≈ 112 µM).
The result for `Cc1nn(CC(=O)OCC(=O)NCCc2ccc(F)cc2)c(C)c1[N+](=O)[O-]` reads > 56.8 µg/mL; that for `COc1cc(SC)ccc1C(=O)NC1CCCc2ccccc21` (stereo not given), < 0.7 µg/mL; that for `NC(=O)C1CCN(c2ncccc2[N+](=O)[O-])CC1`, > 37.5 µg/mL.
As for `CC1CN(Cc2cc(=O)oc3cc(O)ccc23)CC(C)O1` (stereo not given), the kinetic solubility was > 43.4 µg/mL.
The result for `CC(=O)Nc1ccc(C=C(C(C)=O)C(C)=O)cc1` reads > 36.8 µg/mL; that for `Nn1cnnc1SCC(=O)Nc1ccc2c(c1)OCO2`, > 44 µg/mL.
The result for `Nc1nc(-c2ccc3c(c2)OCCO3)c(CC(=O)O)s1` reads 41.1 µg/mL (≈ 141 µM); that for `Cc1noc(C)c1COC(=O)[C@@H](NC(=O)c1ccccc1)C(C)C`, > 49.6 µg/mL; that for `COc1ccc(-c2csc(Nc3cc(C)ccn3)n2)cc1C`, < 0.2 µg/mL.
Compound `CC(=O)N/C(N)=N/c1nc2cc([N+](=O)[O-])ccc2o1` had a solubility (kinetic) of 3.8 µg/mL (≈ 14.4 µM).
In turn, `Cc1cccc(N2CC(C)Cn3c2nc2c3c(=O)[nH]c(=O)n2C)c1` (stereo not given) came in with a kinetic solubility of 27 µg/mL (≈ 83 µM).
The result for `Cc1ccc(CNCCc2ccccc2F)s1` reads 33.2 µg/mL (≈ 133 µM).
The compound `COc1ccccc1OCCNC(=O)Nc1ccc(Br)cc1` had a solubility (kinetic) of 1.3 µg/mL (≈ 3.56 µM).
The compound `Cc1ccc(OCCN2C(=O)C(=O)c3cc(C)ccc32)cc1` returned a kinetic solubility of 4.1 µg/mL (≈ 13.9 µM).
The result for `CCN(CCO)Cc1cc(=O)oc2cc3c(cc12)CCC3` reads 42.1 µg/mL (≈ 147 µM); that for `Nc1nc2ccccc2n1CCOc1ccc(F)cc1`, > 40.7 µg/mL.
The result for `O=C(NNC(=S)NC(=O)c1ccc(F)cc1)c1cccnc1` reads > 47.7 µg/mL; that for `CC(=O)c1c(C)[nH]c(C(=O)COC(=O)COc2ccccc2)c1C`, 16.3 µg/mL (≈ 49.5 µM); that for `CC(C(=O)Nc1ccc(S(=O)(=O)N2CCCC2)cc1)N(C)CC(=O)Nc1cccc(F)c1` (stereo not given), 28.7 µg/mL (≈ 62 µM).
The result for `Cc1cc(Br)ccc1S(=O)(=O)NCc1ccccc1` reads 32.5 µg/mL (≈ 95.5 µM); that for `O=C(NC1CCSC1=O)C1CC(=O)N(c2ccc(F)cc2)C1` (stereo not given), 46.2 µg/mL (≈ 143 µM); that for `COc1ccccc1C(=O)COC(=O)c1cnc(C)cn1`, > 42.9 µg/mL.
Compound `CCN(c1ccccc1)S(=O)(=O)c1ccc(C(=O)NC2CCN(Cc3ccccc3)CC2)cc1` came in with a kinetic solubility of 47.8 µg/mL (≈ 100 µM).
The result for `COc1ccccc1OCC(=O)NC1CCCCCCC1` reads 40.8 µg/mL (≈ 140 µM).
Compound `O=C(COc1ccccc1)NCC1(N2CCCCC2)CCCCC1` registered a kinetic solubility of 48.3 µg/mL (≈ 146 µM).
The result for `COc1cc2c(cc1OC)C(c1ccccc1O)NCC2` (stereo not given) reads 37.3 µg/mL (≈ 131 µM).
Compound `COc1ccc(CN2CCCCCC2)cc1OC` had a solubility (kinetic) of 21.6 µg/mL (≈ 86.6 µM).
The result for `CC(C)C(NC(=O)c1cccs1)C(=O)NC1CCCCC1` (stereo not given) reads 4.7 µg/mL (≈ 15.2 µM); that for `CC(CN1C(C)CCCC1C)OC(=O)c1ccccc1Cl` (stereo not given), > 46.5 µg/mL.
The result for `CCCn1c(NC(=O)c2ccc([N+](=O)[O-])o2)nc2ccccc21` reads 10.4 µg/mL (≈ 33.1 µM).
The result for `C#Cc1cccc(C(=O)N2CCCC(Nc3cccc(F)c3)C2)c1` (stereo not given) reads 39.5 µg/mL (≈ 123 µM); that for `O=C(COC(=O)c1ccco1)NCc1ccc(Cl)cc1Cl`, 14.1 µg/mL (≈ 43 µM).
With `CCc1nc(C)cn1S(=O)(=O)c1ccc(Br)cc1`, the kinetic solubility was > 49.4 µg/mL.
The result for `O=[N+]([O-])c1ccc(CN2CCN(c3ccccc3Cl)CC2)o1` reads 31.8 µg/mL (≈ 98.8 µM).
As for `S=c1nc(Cc2ccccc2)[nH]c2ccccc12`, the solubility (kinetic) stood at 2.4 µg/mL (≈ 9.51 µM).
With `CCOC(=O)c1cc2ccccc2n1CC(=O)c1ccccc1`, the solubility (kinetic) was < 0.7 µg/mL.
The result for `COc1ccc(N2C(=O)CSC2c2ccc(F)c(F)c2)cc1` (stereo not given) reads > 48.2 µg/mL; that for `CC(C)(CO)NCC#Cc1ccccc1.Cl`, > 36 µg/mL; that for `O=C(NCc1ccncc1)c1cc(C(=O)C2CC2)c[nH]1`, 36.2 µg/mL (≈ 134 µM).
Take `Cc1ccc2nc(-c3ccccc3)c(CC(=O)O)c(C(=O)O)c2c1`: the kinetic solubility was > 48.2 µg/mL.
The result for `CCOc1ccc(OCc2ccc(C(=O)NC(C)C)o2)cc1` reads 13.3 µg/mL (≈ 43.8 µM); that for `CCN(CC)c1cc(C)c(C#N)c2nc3ccccc3n12`, 2 µg/mL (≈ 7.18 µM).
The result for `CCCNC(=O)CN1C(=O)NC(CC)(c2ccc(F)cc2)C1=O` (stereo not given) reads > 48.2 µg/mL; that for `COc1ccc(C(=O)NC(=S)Nc2cccnc2)cc1Cl`, 1.5 µg/mL (≈ 4.66 µM); that for `O=C(COc1ccc(Cl)cc1Cl)NC(=O)c1ccccc1`, < 0.7 µg/mL.
The result for `Cc1cc(C)n(-c2cc(C(=O)O)cc(C(=O)O)c2)n1` reads > 39 µg/mL.
In the case of `CCOC(=O)CC(=O)Nc1ccsc1C(N)=O`, the kinetic solubility was 36.1 µg/mL (≈ 141 µM).
The result for `COC(=O)c1cc(C(=O)CC(C)C)c[nH]1` reads > 31.4 µg/mL.
In the case of `Cc1ccc(C(=O)NC(=S)N(C)Cc2ccccc2)cc1`, the solubility (kinetic) worked out at 2 µg/mL (≈ 6.7 µM).
Consider `O=C1CC2C(=O)NCCN2C(=NC(=O)c2ccccc2)N1` (stereo not given), for which the kinetic solubility turned out to be 41.2 µg/mL (≈ 144 µM).
The result for `COc1ccc(C(=O)Cn2cnc3ccccc3c2=O)cc1` reads 31 µg/mL (≈ 105 µM); that for `NC(=O)c1ccccc1OCC(=O)Nc1cccnc1Cl`, > 45.9 µg/mL; that for `CNC(=O)c1ccccc1S(=O)c1ccccc1COC(C)=O` (stereo not given), > 49.7 µg/mL.
The result for `CC(C)NC(=O)N1CCN(c2ccncc2S(=O)(=O)N2CCCCC2)CC1` reads > 59.3 µg/mL; that for `COc1ccc(NC(=O)COC(=O)C2CC3C=CC2C3)cc1` (stereo not given), > 45.2 µg/mL; that for `O=C(NNC(=S)NC(=O)c1ccccc1)c1cccnc1`, > 45.1 µg/mL.
The result for `COc1ccc(CCNC(=O)c2cc(Cl)nc3ccccc23)cc1` reads 5.9 µg/mL (≈ 17.3 µM); that for `O=C1CC(=O)N(c2cccc(Br)c2)C(=O)N1`, 39.2 µg/mL (≈ 138 µM); that for `CC(C)N(CCC#N)C(=O)Nc1ccc2c(c1)CCO2`, > 41 µg/mL.
Regarding `C/C(=N\OCc1cccc(C(=O)O)c1)c1ccc(Cl)cc1`, the solubility (kinetic) is > 45.6 µg/mL.
As for `CSc1nnc(C)c(=O)n1COC(=O)c1ccccc1`, the kinetic solubility was > 43.7 µg/mL.
The result for `CC1=NN(c2nc(-c3ccc(C#N)cc3)cs2)C(=O)C1` reads > 42.3 µg/mL; that for `Cc1ccccc1Nc1nc(N)nc(COC(=O)c2c(C)noc2C)n1`, > 53.2 µg/mL; that for `O=C(NCCc1ccc(Cl)cc1)c1ccc2c(c1)OCO2`, 1.2 µg/mL (≈ 3.95 µM).
